Measurements reported in PMC7761743, “Structure and Characterization of Phosphoglucomutase 5 from Atlantic and Baltic Herring—An Inactive Enzyme with Intact Substrate Binding” (Biomolecules, 2020).

Target: T1, bPGM5 (Baltic herring PGM5) (Clupea harengus, UniProt A0A6P3VN15)
T1 construct: full length, 567 residues; codon-optimized, E. coli BL21(DE3), pNIC28-Bsa4, N-terminal TEV-cleavable His6-tag (kept in crystals, removed for DSF); monomer; Ser121 phosphorylated in crystal
Assay: X-ray crystal structure, […] Å
Format: binding
Conditions: active site; His6-tagged protein with phosphorylated Ser121, metal modelled as Ni2+; crystals soaked overnight with 5 mM glucose-1,6-bisphosphate, observed ligand is G1P; pH 6.5

T1 sequence (A0A6P3VN15 entry or part of it): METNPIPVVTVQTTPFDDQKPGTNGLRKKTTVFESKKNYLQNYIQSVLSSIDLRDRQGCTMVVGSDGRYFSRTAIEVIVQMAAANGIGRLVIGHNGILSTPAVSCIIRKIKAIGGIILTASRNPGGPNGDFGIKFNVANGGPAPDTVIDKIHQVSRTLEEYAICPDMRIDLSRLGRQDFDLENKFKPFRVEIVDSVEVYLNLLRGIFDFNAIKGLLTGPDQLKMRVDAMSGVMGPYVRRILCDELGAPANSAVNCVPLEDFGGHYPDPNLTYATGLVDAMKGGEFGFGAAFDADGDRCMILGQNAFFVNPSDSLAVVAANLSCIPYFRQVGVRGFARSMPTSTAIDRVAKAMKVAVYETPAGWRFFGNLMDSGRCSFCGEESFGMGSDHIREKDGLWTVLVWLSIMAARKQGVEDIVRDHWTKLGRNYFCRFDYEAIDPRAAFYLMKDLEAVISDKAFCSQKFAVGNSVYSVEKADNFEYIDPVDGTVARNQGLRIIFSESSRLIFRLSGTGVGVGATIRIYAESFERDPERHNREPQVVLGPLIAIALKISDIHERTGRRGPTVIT

Q: How did the “X-ray crystal structure, 1.95 Å” value turn out when `O=P(O)(O)O[C@H]1O[C@H](CO)[C@@H](O)[C@H](O)[C@H]1O` [G1P, glucose-1-phosphate] was run?
A: the observed ligand is G1P instead of the G16P that was used in crystallization
